Values of other authors in patent publication US8288391B2, “Pyrazinoylguanidine compounds for use as taste modulators” (Parion Sciences, Inc., priority 2007, dated 2012).

Target: T1, ENaC (Rattus norvegicus, UniProt P37089+P37090+P37091)
T1 construct: receptor cells in taste buds and some surrounding non-taste epithelia) through apical membrane ENaC; host or cells: rat in vivo: taste nerve (chorda tympani) response, with endogenous channel of lingual taste receptor cells
T1 sequence (P37089 1-698): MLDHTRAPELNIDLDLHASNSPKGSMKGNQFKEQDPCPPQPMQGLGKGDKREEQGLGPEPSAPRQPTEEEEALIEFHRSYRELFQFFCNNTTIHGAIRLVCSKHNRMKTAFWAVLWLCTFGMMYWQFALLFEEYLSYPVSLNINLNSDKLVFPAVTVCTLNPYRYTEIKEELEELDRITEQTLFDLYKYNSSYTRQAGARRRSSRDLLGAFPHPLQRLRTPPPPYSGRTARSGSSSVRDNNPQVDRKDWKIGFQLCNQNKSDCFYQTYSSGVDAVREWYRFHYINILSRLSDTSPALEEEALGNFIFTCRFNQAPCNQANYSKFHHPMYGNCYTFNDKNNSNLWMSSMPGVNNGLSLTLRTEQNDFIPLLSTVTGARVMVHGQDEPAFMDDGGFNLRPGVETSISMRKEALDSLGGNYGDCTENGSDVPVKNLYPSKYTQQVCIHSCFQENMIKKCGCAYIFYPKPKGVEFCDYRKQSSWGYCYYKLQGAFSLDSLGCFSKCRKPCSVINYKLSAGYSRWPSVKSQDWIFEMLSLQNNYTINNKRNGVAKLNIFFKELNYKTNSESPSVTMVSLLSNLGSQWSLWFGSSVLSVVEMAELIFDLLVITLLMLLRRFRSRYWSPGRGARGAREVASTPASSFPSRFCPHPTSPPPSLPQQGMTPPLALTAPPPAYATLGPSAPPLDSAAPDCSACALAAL
T1 sequence (P37090 1-638): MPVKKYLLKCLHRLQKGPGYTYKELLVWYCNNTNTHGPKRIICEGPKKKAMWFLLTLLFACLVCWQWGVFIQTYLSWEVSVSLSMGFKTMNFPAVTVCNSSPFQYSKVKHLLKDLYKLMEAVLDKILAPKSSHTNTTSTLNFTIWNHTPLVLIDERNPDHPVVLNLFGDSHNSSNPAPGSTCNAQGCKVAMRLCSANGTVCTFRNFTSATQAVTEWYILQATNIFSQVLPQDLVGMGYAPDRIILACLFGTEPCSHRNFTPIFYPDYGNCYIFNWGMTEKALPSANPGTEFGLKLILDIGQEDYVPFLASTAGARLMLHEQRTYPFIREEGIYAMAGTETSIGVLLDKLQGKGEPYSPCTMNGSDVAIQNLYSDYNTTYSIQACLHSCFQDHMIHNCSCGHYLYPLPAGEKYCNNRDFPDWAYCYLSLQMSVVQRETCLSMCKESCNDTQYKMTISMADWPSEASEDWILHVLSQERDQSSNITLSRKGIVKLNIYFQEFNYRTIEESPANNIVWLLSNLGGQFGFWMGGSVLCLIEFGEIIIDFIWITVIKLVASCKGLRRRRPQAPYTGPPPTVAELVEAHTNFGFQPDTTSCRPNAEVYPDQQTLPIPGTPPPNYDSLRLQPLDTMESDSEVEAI
T1 sequence (P37091 1-650): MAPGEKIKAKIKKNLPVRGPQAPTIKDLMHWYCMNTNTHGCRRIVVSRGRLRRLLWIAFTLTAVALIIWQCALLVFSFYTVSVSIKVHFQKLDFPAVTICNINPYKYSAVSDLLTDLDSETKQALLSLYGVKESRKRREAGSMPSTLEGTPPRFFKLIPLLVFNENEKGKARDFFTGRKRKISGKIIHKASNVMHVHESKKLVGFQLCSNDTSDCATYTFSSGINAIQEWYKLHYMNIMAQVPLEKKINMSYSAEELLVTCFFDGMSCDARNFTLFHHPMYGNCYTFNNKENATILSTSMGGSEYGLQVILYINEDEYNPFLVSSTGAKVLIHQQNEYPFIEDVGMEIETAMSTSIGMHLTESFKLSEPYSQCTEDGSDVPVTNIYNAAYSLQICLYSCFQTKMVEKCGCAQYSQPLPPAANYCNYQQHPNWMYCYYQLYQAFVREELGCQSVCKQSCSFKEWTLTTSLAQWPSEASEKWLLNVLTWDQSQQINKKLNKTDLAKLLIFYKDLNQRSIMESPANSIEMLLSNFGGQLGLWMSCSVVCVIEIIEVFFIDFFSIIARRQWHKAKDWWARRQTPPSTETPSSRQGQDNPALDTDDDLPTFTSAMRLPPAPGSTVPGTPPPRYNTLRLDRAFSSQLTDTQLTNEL
Conditions: rats; 100 mM NaCl; share of total taste response

- amiloride-sensitive part of the total response to NaCl: 75%-80%
Structure (SMILES): N=C(N)NC(=O)c1nc(Cl)c(N)nc1N [amiloride]
